Source: ChEMBL document CHEMBL4400547 (J Med Chem, 2019)
Converted amounts (≈) assume the structure as drawn. The source made the active and inactive calls. No cut-off for these calls is given here.

What was measured:
[1] = physchem; details: buffer
Description: Aqueous kinetic solubility of the compound

[2] = Distribution coefficient, log D of the compound at pH 7.4; type: physicochemical; details: octanol/water
[3] = target: T1, Serine/threonine-protein kinase/endoribonuclease IRE1 (Homo sapiens, UniProt O75460); test: Inhibition of dephosphorylated IRE1alpha (G547 to L977 residues) (unknown origin) autophosphorylation at S724 after 25 mins in presence of ATP by dissociation-enhanced lanthanide fluorescence immunoassay
Target sequence in this assay (O75460 whole entry, the tested form may be a part): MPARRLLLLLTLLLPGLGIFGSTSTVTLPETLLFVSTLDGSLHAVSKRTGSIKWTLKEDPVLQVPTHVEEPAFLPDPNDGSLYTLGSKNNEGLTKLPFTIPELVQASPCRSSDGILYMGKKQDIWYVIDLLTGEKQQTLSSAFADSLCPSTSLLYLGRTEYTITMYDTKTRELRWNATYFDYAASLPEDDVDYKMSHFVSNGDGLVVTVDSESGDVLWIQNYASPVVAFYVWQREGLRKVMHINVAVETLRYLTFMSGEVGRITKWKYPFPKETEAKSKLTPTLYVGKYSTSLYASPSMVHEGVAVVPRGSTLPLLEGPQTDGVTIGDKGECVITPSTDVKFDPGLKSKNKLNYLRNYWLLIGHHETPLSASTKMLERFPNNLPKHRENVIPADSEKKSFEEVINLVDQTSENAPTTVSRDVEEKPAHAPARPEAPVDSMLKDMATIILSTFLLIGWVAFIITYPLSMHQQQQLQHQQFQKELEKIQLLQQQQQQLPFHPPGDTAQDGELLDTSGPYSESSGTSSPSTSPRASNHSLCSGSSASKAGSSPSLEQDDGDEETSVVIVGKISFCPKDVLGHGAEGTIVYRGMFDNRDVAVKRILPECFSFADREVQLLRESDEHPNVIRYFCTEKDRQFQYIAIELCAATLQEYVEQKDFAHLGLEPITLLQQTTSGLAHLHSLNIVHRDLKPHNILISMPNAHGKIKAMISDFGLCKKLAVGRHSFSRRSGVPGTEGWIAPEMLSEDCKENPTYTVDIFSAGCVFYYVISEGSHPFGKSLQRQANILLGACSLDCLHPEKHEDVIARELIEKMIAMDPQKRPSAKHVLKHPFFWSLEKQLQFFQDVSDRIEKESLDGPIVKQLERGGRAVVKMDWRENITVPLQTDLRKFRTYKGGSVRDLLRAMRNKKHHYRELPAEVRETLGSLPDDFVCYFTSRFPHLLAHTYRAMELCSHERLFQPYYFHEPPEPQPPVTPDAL

[4] = target: T1, Serine/threonine-protein kinase/endoribonuclease IRE1; test: Displacement for LanthaScreen tracer from dephosphorylated IRE1alpha (G547 to L977 residues) (unknown origin) ATP binding site […] after 60 mins by FRET assay
Target sequence in this assay (O75460 whole entry, the tested form may be a part): as above

[5] = target: Dual specificity protein kinase CLK2 (Homo sapiens) (UniProt P49760); test: Inhibition of recombinant human GST-tagged CLK2 expressed in baculovirus expression system at 1 uM by kinomescan assay relative to control
[6] = target: Dual specificity protein kinase CLK1 (Homo sapiens) (UniProt P49759); test: Inhibition of recombinant human GST-tagged CLK1 expressed in Escherichia coli at 1 uM by kinomescan assay relative to control
[7] = target: Dual specificity tyrosine-phosphorylation-regulated kinase 2 (Homo sapiens) (UniProt Q92630); test: Inhibition of recombinant human GST-tagged DYRK2 at 1 uM by kinomescan assay relative to control
[8] = target: Cyclin-G-associated kinase (Homo sapiens) (UniProt O14976); test: Inhibition of recombinant human GST-tagged GAK (1 to 396 residues) expressed in insect cell expression system at 1 uM by kinomescan assay relative to control
[9] = target: T1, Serine/threonine-protein kinase/endoribonuclease IRE1; test: Inhibition of dephosphorylated IRE1alpha (G547 to L977 residues) (unknown origin) -dependent cleavage of FAM-labeled stem-loop RNA containing the XBP1 cleavage site preincubated for 30 mins followed by RNA XBP1 substrate addition and measured after 15 mins by FRET assay
Target sequence in this assay (O75460 whole entry, the tested form may be a part): as above

[10] = target: T1, Serine/threonine-protein kinase/endoribonuclease IRE1; test: Inhibition of tunicamycin-induced IRE1alpha (unknown origin) expressed in HEK293 cells assessed as reduction in IRE1alpha-dependent splicing of XBP1u-luciferase mRNA by luciferase reporter gene assay; type: cell-based
Target sequence in this assay (O75460 whole entry, the tested form may be a part): as above

[11] = target: Dual specificity protein kinase CLK4 (Homo sapiens) (UniProt Q9HAZ1); test: Inhibition of recombinant full length human GST-tagged CLK4 expressed in baculovirus expression system at 1 uM by kinomescan assay relative to control
[12] = target: Dual specificity tyrosine-phosphorylation-regulated kinase 1A (Homo sapiens) (UniProt Q13627); test: Inhibition of recombinant full length human GST-tagged DYRK1A expressed in baculovirus expression system at 1 uM by kinomescan assay relative to control
[13] = target: Dual specificity tyrosine-phosphorylation-regulated kinase 1B (Homo sapiens) (UniProt Q9Y463); test: Inhibition of recombinant full length human GST-tagged DYRK1B expressed in baculovirus expression system at 1 uM by kinomescan assay relative to control
[14] = target: Homeodomain-interacting protein kinase 1 (Homo sapiens) (UniProt Q86Z02); test: Inhibition of recombinant human GST-tagged HIPK1 expressed in baculovirus expression system at 1 uM by kinomescan assay relative to control
[15] = target: Homeodomain-interacting protein kinase 2 (Homo sapiens) (UniProt Q9H2X6); test: Inhibition of recombinant human N-terminal GST-tagged HIPK2 expressed in baculovirus expression system at 1 uM by kinomescan assay relative to control
[16] = target: Homeodomain-interacting protein kinase 3 (Homo sapiens) (UniProt Q9H422); test: Inhibition of recombinant human His-tagged HIPK3 expressed in baculovirus expression system at 1 uM by kinomescan assay relative to control
[17] = system: Receptor-type tyrosine-protein kinase FLT3 (Homo sapiens), P36888 [R834Q]; test: Inhibition of recombinant human His-tagged FLT3 R834Q mutant expressed in baculovirus expression system at 1 uM by kinomescan assay relative to control
[18] = target: Homeodomain-interacting protein kinase 4 (Homo sapiens) (UniProt Q8NE63); test: Inhibition of recombinant human His-tagged HIPK4 expressed in baculovirus expression system at 1 uM by kinomescan assay relative to control
[19] = target: Myosin light chain kinase, smooth muscle (Homo sapiens) (UniProt Q15746); test: Inhibition of recombinant human GST-tagged MLCK expressed in baculovirus expression system at 1 uM by kinomescan assay relative to control
[20] = target: Platelet-derived growth factor receptor alpha (Homo sapiens) (UniProt P16234); test: Inhibition of recombinant human GST-tagged PDGFRA expressed in baculovirus expression system at 1 uM by kinomescan assay relative to control
[21] = target: Receptor-type tyrosine-protein kinase FLT3 (Homo sapiens) (UniProt P36888); test: Inhibition of recombinant human His-tagged FLT3 expressed in baculovirus expression system at 1 uM by kinomescan assay relative to control
[22] = system: Receptor-type tyrosine-protein kinase FLT3 (Homo sapiens), P36888 [UNDEFINED MUTATION]; test: Inhibition of recombinant human His-tagged FLT3 ITD mutant expressed in baculovirus expression system at 1 uM by kinomescan assay relative to control
[23] = system: Receptor-type tyrosine-protein kinase FLT3 (Homo sapiens), P36888 [D835H]; test: Inhibition of recombinant human His-tagged FLT3 D835H mutant expressed in baculovirus expression system at 1 uM by kinomescan assay relative to control
[24] = system: Receptor-type tyrosine-protein kinase FLT3 (Homo sapiens), P36888 [D835V]; test: Inhibition of recombinant human His-tagged FLT3 D835V mutant expressed in baculovirus expression system at 1 uM by kinomescan assay relative to control
[25] = organism: Homo sapiens; test: Inhibition of recombinant human His-tagged FLT3 ITD/D835V double mutant expressed in baculovirus expression system at 1 uM by kinomescan assay relative to control
[26] = system: Receptor-type tyrosine-protein kinase FLT3 (Homo sapiens), P36888 [N841I]; test: Inhibition of recombinant human His-tagged FLT3 […] mutant expressed in baculovirus expression system at 1 uM by kinomescan assay relative to control
[27] = target: Mast/stem cell growth factor receptor Kit (Homo sapiens) (UniProt P10721); test: Inhibition of recombinant human His-tagged KIT expressed in baculovirus expression system at 1 uM by kinomescan assay relative to control
[28] = system: Mast/stem cell growth factor receptor Kit (Homo sapiens), P10721 [L576P]; test: Inhibition of recombinant human His-tagged KIT L576P mutant expressed in baculovirus expression system at 1 uM by kinomescan assay relative to control
[29] = system: Mast/stem cell growth factor receptor Kit (Homo sapiens), P10721 [V559D]; test: Inhibition of recombinant human His-tagged KIT V559D mutant expressed in baculovirus expression system at 1 uM by kinomescan assay relative to control
[30] = system: Mast/stem cell growth factor receptor Kit (Homo sapiens), P10721 [V559D,T670I]; test: Inhibition of recombinant human His-tagged KIT V559D/T670I double mutant expressed in baculovirus expression system at 1 uM by kinomescan assay relative to control
[31] = system: Mast/stem cell growth factor receptor Kit (Homo sapiens), P10721 [V559D,V654A]; test: Inhibition of recombinant human His-tagged KIT V559D/V654A double mutant expressed in baculovirus expression system at 1 uM by kinomescan assay relative to control
[32] = system: Tyrosine-protein kinase ABL1 (Homo sapiens), P00519 [F317I]; test: Inhibition of phosphorylated recombinant human His-tagged ABL1 F317I mutant expressed in baculovirus expression system at 1 uM by kinomescan assay relative to control
[33] = system: Tyrosine-protein kinase ABL1 (Homo sapiens), P00519 [F317L]; test: Inhibition of phosphorylated recombinant human His-tagged ABL1 F317L mutant expressed in baculovirus expression system at 1 uM by kinomescan assay relative to control
[34] = target: T1, Serine/threonine-protein kinase/endoribonuclease IRE1; test: Inhibition of tunicamycin-induced GFP-fused IRE1alpha (unknown origin) oligomerization expressed in HEK293 cells assessed as reduction in fluorescent foci formation after 5 hrs by fluorescence based assay; type: cell-based
Target sequence in this assay (O75460 whole entry, the tested form may be a part): as above

[35] = target: Receptor-type tyrosine-protein kinase FLT3 (Homo sapiens) (UniProt P36888); test: Inhibition of auto-inhibited recombinant human His-tagged FLT3 expressed in baculovirus expression system at 1 uM by kinomescan assay relative to control
[36] = target: T1, Serine/threonine-protein kinase/endoribonuclease IRE1; test: Inhibition of thapsigargin-induced IRE1alpha (unknown origin) expressed in HEK293 cells assessed as reduction in IRE1alpha-dependent splicing of XBP1u-luciferase mRNA by luciferase reporter gene assay; type: cell-based
Target sequence in this assay (O75460 whole entry, the tested form may be a part): as above

[37] = target: T1, Serine/threonine-protein kinase/endoribonuclease IRE1; test: Inhibition of tunicamycin-induced IRE1alpha-dependent splicing of XBP1s-mRNA transcription in human H929 cells assessed as reduction in […] mRNA expression in at 0.5 to 10 uM by RT-qPCR analysis; type: cell-based
[38] = system: HEK293; test: cells; details: Homo sapiens
Description: Cytotoxicity against HEK293 cells co-expressing XBP1u-mRNA by luciferase reporter gene assay

Dual specificity protein kinase CLK4 (Homo sapiens), sequence (Q9HAZ1 whole entry, looked up): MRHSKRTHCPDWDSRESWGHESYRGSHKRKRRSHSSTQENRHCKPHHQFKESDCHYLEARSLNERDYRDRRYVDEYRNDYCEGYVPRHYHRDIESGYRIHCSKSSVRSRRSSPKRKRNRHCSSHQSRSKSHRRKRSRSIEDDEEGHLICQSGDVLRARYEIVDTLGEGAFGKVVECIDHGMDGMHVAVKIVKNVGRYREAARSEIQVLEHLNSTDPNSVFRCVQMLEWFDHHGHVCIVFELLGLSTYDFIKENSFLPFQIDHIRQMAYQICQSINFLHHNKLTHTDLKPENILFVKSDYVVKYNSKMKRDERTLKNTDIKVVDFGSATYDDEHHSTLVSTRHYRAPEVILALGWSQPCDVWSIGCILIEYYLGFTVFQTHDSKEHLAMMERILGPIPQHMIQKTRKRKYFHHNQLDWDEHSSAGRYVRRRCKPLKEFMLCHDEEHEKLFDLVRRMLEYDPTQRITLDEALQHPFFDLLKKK
Cyclin-G-associated kinase (Homo sapiens), sequence (O14976 whole entry, the tested form may be a part): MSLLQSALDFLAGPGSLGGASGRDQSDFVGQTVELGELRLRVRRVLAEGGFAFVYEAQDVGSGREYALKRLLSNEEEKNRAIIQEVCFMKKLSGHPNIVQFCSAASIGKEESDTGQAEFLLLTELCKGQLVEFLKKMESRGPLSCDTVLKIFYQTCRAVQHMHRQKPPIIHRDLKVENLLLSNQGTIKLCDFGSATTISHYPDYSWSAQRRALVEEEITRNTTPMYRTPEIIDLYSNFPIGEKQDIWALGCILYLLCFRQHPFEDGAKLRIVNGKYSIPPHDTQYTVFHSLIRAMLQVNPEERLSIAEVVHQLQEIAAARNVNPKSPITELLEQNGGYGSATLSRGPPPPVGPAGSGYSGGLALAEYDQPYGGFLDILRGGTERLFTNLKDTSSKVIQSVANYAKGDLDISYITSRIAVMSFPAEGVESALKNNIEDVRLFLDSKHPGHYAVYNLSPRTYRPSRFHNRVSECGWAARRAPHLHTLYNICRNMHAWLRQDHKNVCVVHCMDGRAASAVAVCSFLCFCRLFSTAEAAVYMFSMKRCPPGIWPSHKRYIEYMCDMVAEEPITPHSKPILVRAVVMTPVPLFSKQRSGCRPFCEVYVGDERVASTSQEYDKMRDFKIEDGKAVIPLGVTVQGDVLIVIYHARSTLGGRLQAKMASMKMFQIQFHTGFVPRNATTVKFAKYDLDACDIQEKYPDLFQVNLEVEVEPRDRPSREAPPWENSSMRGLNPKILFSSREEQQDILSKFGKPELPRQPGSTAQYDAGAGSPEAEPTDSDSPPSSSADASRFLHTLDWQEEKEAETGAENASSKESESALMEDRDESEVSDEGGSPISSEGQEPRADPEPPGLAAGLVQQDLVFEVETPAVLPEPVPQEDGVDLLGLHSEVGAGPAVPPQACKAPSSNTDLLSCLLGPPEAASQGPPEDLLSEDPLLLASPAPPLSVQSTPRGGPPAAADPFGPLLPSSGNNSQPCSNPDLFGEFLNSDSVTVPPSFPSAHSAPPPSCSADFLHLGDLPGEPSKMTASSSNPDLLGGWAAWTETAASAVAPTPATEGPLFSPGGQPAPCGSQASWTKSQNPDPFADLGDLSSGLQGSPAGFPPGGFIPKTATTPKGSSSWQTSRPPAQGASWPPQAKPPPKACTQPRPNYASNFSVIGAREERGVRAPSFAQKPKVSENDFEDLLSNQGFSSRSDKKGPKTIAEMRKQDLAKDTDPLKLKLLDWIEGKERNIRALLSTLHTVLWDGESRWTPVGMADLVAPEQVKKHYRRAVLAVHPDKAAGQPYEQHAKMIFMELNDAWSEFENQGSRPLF
Homeodomain-interacting protein kinase 1 (Homo sapiens), sequence (Q86Z02 whole entry, looked up): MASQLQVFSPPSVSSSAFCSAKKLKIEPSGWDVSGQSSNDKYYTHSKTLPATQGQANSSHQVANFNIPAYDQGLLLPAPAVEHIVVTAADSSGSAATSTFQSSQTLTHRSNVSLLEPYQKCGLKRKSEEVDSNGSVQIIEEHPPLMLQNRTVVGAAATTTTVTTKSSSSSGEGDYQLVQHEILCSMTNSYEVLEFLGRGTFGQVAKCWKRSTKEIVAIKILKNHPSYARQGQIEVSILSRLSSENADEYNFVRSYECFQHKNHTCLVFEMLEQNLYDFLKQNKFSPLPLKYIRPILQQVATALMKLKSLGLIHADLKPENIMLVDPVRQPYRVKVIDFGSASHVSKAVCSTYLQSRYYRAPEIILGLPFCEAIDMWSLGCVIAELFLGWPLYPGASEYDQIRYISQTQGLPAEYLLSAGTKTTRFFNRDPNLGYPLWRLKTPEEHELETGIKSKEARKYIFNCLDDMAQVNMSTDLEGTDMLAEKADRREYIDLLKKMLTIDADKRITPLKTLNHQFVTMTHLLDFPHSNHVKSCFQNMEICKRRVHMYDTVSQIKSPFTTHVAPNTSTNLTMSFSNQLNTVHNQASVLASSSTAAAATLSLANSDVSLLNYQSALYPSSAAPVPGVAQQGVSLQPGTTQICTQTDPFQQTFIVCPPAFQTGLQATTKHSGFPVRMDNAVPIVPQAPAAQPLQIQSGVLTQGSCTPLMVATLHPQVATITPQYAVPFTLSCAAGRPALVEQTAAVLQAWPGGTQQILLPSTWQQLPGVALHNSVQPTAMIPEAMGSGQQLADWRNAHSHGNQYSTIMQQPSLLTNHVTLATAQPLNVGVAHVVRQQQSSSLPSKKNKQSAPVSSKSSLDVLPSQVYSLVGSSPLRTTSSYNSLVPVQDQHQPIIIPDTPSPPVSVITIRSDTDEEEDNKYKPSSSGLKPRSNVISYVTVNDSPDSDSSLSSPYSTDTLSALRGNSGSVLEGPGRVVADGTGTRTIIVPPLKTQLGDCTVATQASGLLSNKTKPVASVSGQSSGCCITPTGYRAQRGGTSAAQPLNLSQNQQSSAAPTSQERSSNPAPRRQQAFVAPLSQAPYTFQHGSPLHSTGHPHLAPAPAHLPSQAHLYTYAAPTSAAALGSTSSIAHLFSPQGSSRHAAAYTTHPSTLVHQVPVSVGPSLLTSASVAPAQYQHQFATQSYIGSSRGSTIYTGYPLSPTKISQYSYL
Dual specificity tyrosine-phosphorylation-regulated kinase 1B (Homo sapiens), sequence (Q9Y463 whole entry, looked up): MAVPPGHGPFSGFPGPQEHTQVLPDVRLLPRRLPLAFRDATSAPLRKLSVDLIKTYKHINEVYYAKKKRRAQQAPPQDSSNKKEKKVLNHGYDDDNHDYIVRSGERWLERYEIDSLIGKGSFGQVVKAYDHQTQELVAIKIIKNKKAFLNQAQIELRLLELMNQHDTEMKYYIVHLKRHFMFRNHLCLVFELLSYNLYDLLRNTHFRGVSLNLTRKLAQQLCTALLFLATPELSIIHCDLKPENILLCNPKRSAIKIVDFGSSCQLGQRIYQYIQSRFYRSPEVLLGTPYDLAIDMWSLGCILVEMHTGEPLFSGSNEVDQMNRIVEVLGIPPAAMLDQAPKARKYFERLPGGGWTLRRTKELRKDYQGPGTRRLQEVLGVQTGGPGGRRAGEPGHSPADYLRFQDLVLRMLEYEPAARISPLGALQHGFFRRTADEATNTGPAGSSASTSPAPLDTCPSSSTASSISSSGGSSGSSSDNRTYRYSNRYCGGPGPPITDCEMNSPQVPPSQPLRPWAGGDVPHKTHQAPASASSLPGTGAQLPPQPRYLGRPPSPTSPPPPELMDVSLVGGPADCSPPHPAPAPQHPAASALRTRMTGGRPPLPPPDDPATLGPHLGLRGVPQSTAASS

SMILES: Clc1cc(NC2CCOCC2)c2ncc(-c3ccc4[nH]ncc4c3)n2n1
- solubility kinetic [1]: 2.2 µM (≈ 0.811 µg/mL)

SMILES: CN1CCC(Nc2cc(Cl)nn3c(-c4ccc5[nH]ncc5c4)cnc23)CC1
- logD [2]: 1.8
- solubility kinetic [1]: 58 µM (≈ 22.1 µg/mL)

SMILES: Cn1c(Nc2ccccc2)nc2cc(-c3cnc4c(NCC5CC5)cc(Cl)nn34)ccc21
- IC50 [3]: > 10000 nM
- IC50 [4]: > 10000 nM

SMILES: Clc1cc(NCC2CC2)c2ncc(-c3ccc4cn[nH]c4c3)n2n1
- IC50 [3]: > 10000 nM
- IC50 [4]: > 10000 nM

SMILES: O=C(CN1CCOCC1)N[C@H]1CC[C@H](Nc2cc(Cl)nn3c(-c4ccc5[nH]ncc5c4)cnc23)CC1
- inhibition [5]: > 90%
- inhibition [6]: > 90%
- inhibition [7]: > 90%
- inhibition [8]: > 90%
- IC50 [3]: 240 nM
- IC50 [4]: 87 nM
- IC50 [9]: 27 nM
- IC50 [10]: 1120 nM
- inhibition [11]: > 90%
- inhibition [12]: > 90%
- inhibition [13]: > 90%
- inhibition [14]: > 90%
- inhibition [15]: > 90%
- inhibition [16]: > 90%
- inhibition [17]: > 90%
- inhibition [18]: > 90%
- inhibition [19]: > 90%
- inhibition [20]: > 90%
- inhibition [21]: > 90%
- inhibition [22]: > 90%
- inhibition [23]: > 90%
- inhibition [24]: > 90%
- inhibition [25]: > 90%
- inhibition [26]: > 90%
- inhibition [27]: > 90%
- inhibition [28]: > 90%
- inhibition [29]: > 90%
- inhibition [30]: > 90%
- inhibition [31]: > 90%
- inhibition [32]: > 90%
- inhibition [33]: > 90%
- IC50 [34]: 1880 nM
- inhibition [35]: > 90%
- IC50 [36]: 680 to 1630 nM
- inhibition [37]: Active
- EC50 [38]: > 49000 nM

SMILES: Clc1cc(NC2CCOCC2)c2ncc(-c3ccc4[nH]c(Nc5ccccc5)nc4c3)n2n1
- solubility kinetic [1]: 2.4 µM (≈ 1.1 µg/mL)

SMILES: Cn1ncc2cc(-c3cnc4c(NCC5CC5)cc(Cl)nn34)ccc21
- IC50 [3]: > 10000 nM
- IC50 [4]: > 10000 nM
